Experimental data published in PubChem BioAssay AID248 (DTP/NCI, 2004).
Values joined by “and” are separate entries in the source; they are usually repeats but may differ in a detail not shown here. Equal entries are not always repeated. Toxic doses and inconclusive results are not listed.

Test system: L1210 leukemia ip in BDF1 mice, survival T/C
Assay: NCI In Vivo Anticancer Drug Screen. Data for tumor model L1210 Leukemia (intraperitoneal) in B6D2F1 (BDF1) mice
Conditions: endpoint: mean survival time, higher = longer survival
In short: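 Antitumor effect is assessed in tumor-bearing animals. Survival in the compound arm is compared with a vehicle-dosed control arm and expressed as their quotient.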

[1] = dose: 100.0 mg/kg/injection, schedule: Q01DX001 (ip), vehicle: saline
[2] = dose: 400.0 mg/kg/injection, schedule: Q01DX001 (ip), vehicle: saline
[3] = dose: 100.0 mg/kg/injection, schedule: Q04DX002 (ip), vehicle: saline with Tween-80
[4] = dose: 200.0 mg/kg/injection, schedule: Q04DX002 (ip), vehicle: saline with Tween-80
[5] = dose: 100.0 mg/kg/injection, schedule: Q01DX001 (ip), vehicle: carboxymethylcellulose (CMC)
[6] = dose: 100.0 mg/kg/injection, schedule: Q04DX003 (ip), vehicle: Klucel (hydroxypropylcellulose) (HPC)
[7] = dose: 200.0 mg/kg/injection, schedule: Q01DX001 (ip), vehicle: carboxymethylcellulose (CMC)
[8] = dose: 200.0 mg/kg/injection, schedule: Q04DX003 (ip), vehicle: Klucel (hydroxypropylcellulose) (HPC)
[9] = dose: 400.0 mg/kg/injection, schedule: Q01DX001 (ip), vehicle: carboxymethylcellulose (CMC)
[10] = dose: 100.0 mg/kg/injection, schedule: Q04DX003 (ip), vehicle: saline with Tween-80
[11] = dose: 200.0 mg/kg/injection, schedule: Q04DX003 (ip), vehicle: saline with Tween-80
[12] = dose: 400.0 mg/kg/injection, schedule: Q04DX003 (ip), vehicle: saline with Tween-80
[13] = dose: 100.0 mg/kg/injection, schedule: Q01DX009 (ip), vehicle: Klucel (hydroxypropylcellulose) (HPC)
[14] = dose: 100.0 mg/kg/injection, schedule: Q01DX009 (ip), vehicle: saline
[15] = dose: 200.0 mg/kg/injection, schedule: Q01DX009 (ip), vehicle: saline
[16] = dose: 400.0 mg/kg/injection, schedule: Q04DX003 (ip), vehicle: saline
[17] = dose: 200.0 mg/kg/injection, schedule: Q01DX001 (ip), vehicle: saline
[18] = dose: 100.0 mg/kg/injection, schedule: Q04DX003 (ip), vehicle: saline
[19] = dose: 200.0 mg/kg/injection, schedule: Q04DX003 (ip), vehicle: saline

## CCOC(=O)COc1ccccc1Cl
dose: 1.56 mg/kg/injection, schedule: Q04DX002 (ip), vehicle: Klucel (hydroxypropylcellulose) (HPC)
  T/C: 115 % of control
dose: 3.13 mg/kg/injection, schedule: Q04DX002 (ip), vehicle: Klucel (hydroxypropylcellulose) (HPC)
  T/C: 105 % of control
dose: 6.25 mg/kg/injection, schedule: Q04DX002 (ip), vehicle: Klucel (hydroxypropylcellulose) (HPC)
  T/C: 108 % of control
dose: 12.5 mg/kg/injection, schedule: Q04DX002 (ip), vehicle: Klucel (hydroxypropylcellulose) (HPC)
  T/C: 106 % of control
dose: 25.0 mg/kg/injection, schedule: Q04DX002 (ip), vehicle: Klucel (hydroxypropylcellulose) (HPC)
  T/C: 95 % of control
dose: 50.0 mg/kg/injection, schedule: Q04DX002 (ip), vehicle: Klucel (hydroxypropylcellulose) (HPC)
  T/C: 97 % of control

## Oc1ccccc1Sc1ccccc1O
[1]
  T/C: 92 % of control
[2]
  T/C: 97 % of control

## c1ccc2c(c1)c1c(n2N2CCCCC2)CCC1
[3]
  T/C: 90 % of control
[4]
  T/C: 95 % of control

## Cc1ccc(S(=O)(=O)Oc2ccc([N+](=O)[O-])cc2[N+](=O)[O-])cc1
dose: 50.0 mg/kg/injection, schedule: Q01DX001 (ip), vehicle: carboxymethylcellulose (CMC)
  T/C: 106 % of control
dose: 50.0 mg/kg/injection, schedule: Q01DX009 (ip), vehicle: other
  T/C: 100 % of control
[5]
  T/C: 114 % of control
dose: 100.0 mg/kg/injection, schedule: Q01DX009 (ip), vehicle: other
  T/C: 96 % of control
[6]
  T/C: 118 % of control
[7]
  T/C: 106 % of control
[8]
  T/C: 96 % of control
[9]
  T/C: 106 % of control

## OCC(O)CSc1c(Cl)c(Cl)c(Cl)c(Cl)c1Cl (stereo not drawn)
dose: 100.0 mg/kg/injection, schedule: Q01DX001 (ip), vehicle: saline with Tween-80
  T/C: 98 % of control and 88 % of control
[3]
  T/C: 95 % of control and 101 % of control
[10]
  T/C: 92 % of control
dose: 200.0 mg/kg/injection, schedule: Q01DX001 (ip), vehicle: saline with Tween-80
  T/C: 93 % of control and 95 % of control
[4]
  T/C: 95 % of control and 96 % of control
[11]
  T/C: 99 % of control
dose: 400.0 mg/kg/injection, schedule: Q01DX001 (ip), vehicle: saline with Tween-80
  T/C: 95 % of control and 86 % of control
dose: 400.0 mg/kg/injection, schedule: Q04DX002 (ip), vehicle: saline with Tween-80
  T/C: 97 % of control and 108 % of control
[12]
  T/C: 94 % of control

## COC(=O)C(N=Nc1ccc(C)cc1)C(C)=O (stereo not drawn)
dose: 25.0 mg/kg/injection, schedule: Q01DX009 (ip), vehicle: Klucel (hydroxypropylcellulose) (HPC)
  T/C: 97 % of control
dose: 50.0 mg/kg/injection, schedule: Q01DX009 (ip), vehicle: Klucel (hydroxypropylcellulose) (HPC)
  T/C: 94 % of control
[13]
  T/C: 89 % of control

## CC(C)(C)NS(=O)(=O)c1ccc(Cl)c([N+](=O)[O-])c1
[6]
  T/C: 95 % of control
[8]
  T/C: 93 % of control
dose: 400.0 mg/kg/injection, schedule: Q04DX003 (ip), vehicle: Klucel (hydroxypropylcellulose) (HPC)
  T/C: 90 % of control

## BrC1CC2CCCCC2CC1Br (stereo not drawn)
[5]
  T/C: 98 % of control
[7]
  T/C: 101 % of control
[9]
  T/C: 101 % of control

## O=C(Nc1cccc(C(F)(F)F)c1)N1CCN(c2ccccc2)CC1
[13]
  T/C: 103 % of control
dose: 200.0 mg/kg/injection, schedule: Q01DX009 (ip), vehicle: Klucel (hydroxypropylcellulose) (HPC)
  T/C: 96 % of control
dose: 400.0 mg/kg/injection, schedule: Q01DX009 (ip), vehicle: Klucel (hydroxypropylcellulose) (HPC)
  T/C: 106 % of control

## CC(C)=CCC/C(C)=C/COC(=O)Cc1ccccc1
dose: 100.0 mg/kg/injection, schedule: Q01DX009 (ip), vehicle: saline with Tween-80
  T/C: 103 % of control
[10]
  T/C: 97 % of control
dose: 200.0 mg/kg/injection, schedule: Q01DX009 (ip), vehicle: saline with Tween-80
  T/C: 110 % of control
[11]
  T/C: 98 % of control
dose: 400.0 mg/kg/injection, schedule: Q01DX009 (ip), vehicle: saline with Tween-80
  T/C: 103 % of control
[12]
  T/C: 103 % of control

## [N-]=[N+]=C1C(=O)NC(=O)NC1C(=O)O (stereo not drawn)
dose: 75.0 mg/kg/injection, schedule: Q01DX009 (ip), vehicle: Klucel (hydroxypropylcellulose) (HPC)
  T/C: 103 % of control
dose: 100.0 mg/kg/injection, schedule: Q01DX001 (ip), vehicle: Klucel (hydroxypropylcellulose) (HPC)
  T/C: 96 % of control
dose: 150.0 mg/kg/injection, schedule: Q01DX009 (ip), vehicle: Klucel (hydroxypropylcellulose) (HPC)
  T/C: 119 % of control
dose: 200.0 mg/kg/injection, schedule: Q01DX001 (ip), vehicle: Klucel (hydroxypropylcellulose) (HPC)
  T/C: 100 % of control
dose: 300.0 mg/kg/injection, schedule: Q01DX009 (ip), vehicle: Klucel (hydroxypropylcellulose) (HPC)
  T/C: 107 % of control
dose: 400.0 mg/kg/injection, schedule: Q01DX001 (ip), vehicle: Klucel (hydroxypropylcellulose) (HPC)
  T/C: 86 % of control

## Oc1ccc(C2CCCCCC2)cc1
dose: 12.5 mg/kg/injection, schedule: Q01DX001 (ip), vehicle: carboxymethylcellulose (CMC)
  T/C: 97 % of control
dose: 25.0 mg/kg/injection, schedule: Q01DX001 (ip), vehicle: carboxymethylcellulose (CMC)
  T/C: 103 % of control

## CN(O)C(N)=O
dose: 25.0 mg/kg/injection, schedule: Q03HX024 (ip), vehicle: saline
  T/C: 160 % of control
dose: 35.0 mg/kg/injection, schedule: Q01DX009 (ip), vehicle: saline
  T/C: 124 % of control
dose: 50.0 mg/kg/injection, schedule: Q03HX024 (ip), vehicle: saline
  T/C: 124 % of control
dose: 75.0 mg/kg/injection, schedule: Q04DX003 (ip), vehicle: saline
  T/C: 108 % of control
[14]
  T/C: 151 % of control
dose: 115.0 mg/kg/injection, schedule: Q04DX003 (ip), vehicle: saline
  T/C: 108 % of control
dose: 175.0 mg/kg/injection, schedule: Q04DX003 (ip), vehicle: saline
  T/C: 119 % of control
dose: 177.0 mg/kg/injection, schedule: Q01DX009 (ip), vehicle: saline
  T/C: 152 % of control and 170 % of control
[15]
  T/C: 158 % of control
dose: 265.0 mg/kg/injection, schedule: Q04DX003 (ip), vehicle: saline
  T/C: 115 % of control
dose: 266.0 mg/kg/injection, schedule: Q01DX009 (ip), vehicle: saline
  T/C: 194 % of control
dose: 267.0 mg/kg/injection, schedule: Q01DX009 (ip), vehicle: saline
  T/C: 151 % of control
[16]
  T/C: 166 % of control
dose: 500.0 mg/kg/injection, schedule: Q01DX009 (ip), vehicle: saline
  T/C: 100 % of control
dose: 800.0 mg/kg/injection, schedule: Q01DX009 (ip), vehicle: saline
  T/C: 103 % of control
dose: 900.0 mg/kg/injection, schedule: Q04DX003 (ip), vehicle: saline
  T/C: 115 % of control

## Cc1c2cnccc2c(C)c2c1[nH]c1ccccc12
dose: 25.0 mg/kg/injection, schedule: Q01DX Z (ip), vehicle: saline
  T/C: 104 % of control
dose: 50.0 mg/kg/injection, schedule: Q01DX Z (ip), vehicle: saline
  T/C: 102 % of control
dose: 75.0 mg/kg/injection, schedule: Q01DX Z (ip), vehicle: saline
  T/C: 100 % of control
[1]
  T/C: 97 % of control
dose: 100.0 mg/kg/injection, schedule: Q01DX Z (ip), vehicle: saline
  T/C: 102 % of control and 92 % of control
dose: 150.0 mg/kg/injection, schedule: Q01DX Z (ip), vehicle: saline
  T/C: 90 % of control
[17]
  T/C: 100 % of control
dose: 225.0 mg/kg/injection, schedule: Q01DX Z (ip), vehicle: saline
  T/C: 93 % of control
dose: 335.0 mg/kg/injection, schedule: Q01DX Z (ip), vehicle: saline
  T/C: 97 % of control and 98 % of control
[2]
  T/C: 100 % of control
dose: 500.0 mg/kg/injection, schedule: Q01DX Z (ip), vehicle: saline
  T/C: 113 % of control

## CCCCCCCCCCCCOP(N)(=O)OCCCCCCCCCCCC
dose: 50.0 mg/kg/injection, schedule: Q01DX009 (ip), vehicle: saline
  T/C: 90 % of control
[14]
  T/C: 88 % of control
[18]
  T/C: 94 % of control
[15]
  T/C: 88 % of control
[19]
  T/C: 90 % of control

## CCCc1cn(C2OC(=O)c3ccccc32)c2ccccc12 (stereo not drawn)
[1]
  T/C: 96 % of control
[18]
  T/C: 109 % of control
[17]
  T/C: 105 % of control
[19]
  T/C: 97 % of control
[2]
  T/C: 102 % of control
[16]
  T/C: 101 % of control

## NC(N)=NC1CCCCC1
[18]
  T/C: 102 % of control
[19]
  T/C: 112 % of control
